Experimental data reported in the NIST ThermoML archive (doi:10.1021/je034102r).

Assay: molar heat capacity at constant pressure
Conditions: 101.33 kPa, Liquid, heat bridge-scanning calorimeter

CCCCn1cc[n+](C)c1.F[P-](F)(F)(F)(F)F [1-butyl-3-methylimidazolium hexafluorophosphate]
Conditions	molar heat capacity at constant pressure [J/K/mol]
436.99 K	483.11
437.29 K	483.68
437.42 K	483.96
437.56 K	484.53
437.69 K	484.82
437.83 K	485.38
437.96 K	485.1
438.1 K	485.1
438.24 K	484.53
438.37 K	483.96
438.67 K	484.53
438.81 K	484.53
438.94 K	484.82
439.08 K	485.1
439.21 K	484.82
439.35 K	484.82
439.49 K	484.82
439.62 K	485.38
439.76 K	485.95
439.89 K	485.67
440.03 K	485.95
440.32 K	485.1
440.46 K	484.82
440.6 K	484.82
440.73 K	484.82
440.87 K	484.82
441 K	484.82
441.14 K	485.1
441.28 K	484.82
441.41 K	484.53
441.71 K	484.82
441.85 K	485.1
441.98 K	485.1
442.12 K	485.1
442.25 K	485.67
442.39 K	486.52
442.53 K	486.52
442.66 K	485.95
442.8 K	485.95
442.93 K	486.24
443.07 K	486.24
443.37 K	485.95
443.51 K	485.95
443.65 K	485.95
443.78 K	485.95
443.92 K	486.24
444.05 K	485.95
